Experiments:
Format in all cases: in vivo
[1] = test system: KPL-4 subcutaneous xenograft; assay: Antitumor effects in the KPL-4 xenograft model in mice as monotherapy
Experimental: (§1) A human HER-2 positive breast cancer cell line KPL-4, which had been cultured in a DMEM containing 10% FBS, and penicillin-streptomycin, was adjusted to a concentration of 1×10^8 cells/mL with Hanks' Balanced Salt Solution to prepare a cell suspension. The cell suspension was inoculated in a volume of 100 μL into a subcutaneous part of a right flank of nude mice, 8 weeks of ages (CAnN.Cg-Foxnlnu/CrlCrlj, female, Charles River Laboratories Japan Inc.). Eleven days after cell inoculation (Day 1), the shortest diameter and the longest diameter of a tumor in each mouse were measured by using an electronic digital caliper (Digimatic™ caliper, Mitutoyo Corporation), so as to calculate the volume of the tumor in accordance with the following calculation formulae: Tumor volume (mm^3)=Longest diameter (mm)×Shortest diameter (mm)×Shortest diameter (mm)/2 Relative tumor volume (RTV)=Tumor volume (day X)/Tumor volume (the first day) Relative body weight (RBW)=Body weight (day X)/Body weight (the first day)
(§2) On the basis of the volumes of tumors obtained on Day 1, the mice were grouped such that averages of the tumor volumes were substantially equal among the groups. The experiment was conducted on groups each consisting of six mice. The test compound was dissolved in DMSO and a solution was stored in the freezer before use. Immediately before the administration, the stock solution was diluted with saline. The test compound in saline was intravenously once-weekly administered at 20 μg/kg, 60 μg/kg, or 180 μg/kg for 2 weeks (on Day 1 and Day 8).

[2] = test system: COLO-704 subcutaneous xenograft; assay: Antitumor effects in the COLO-704 xenograft model in mice as monotherapy
Experimental: as §1, with “human ovarian” for “human HER-2 positive breast”, “line COLO-704,” for “line KPL-4,”, “a RPMI-1640” for “a DMEM”, “mice, 5” for “mice, 8”, “ages (CAnN.Cg-Foxn1nu/CrlCrlj,” for “ages (CAnN.Cg-Foxnlnu/CrlCrlj,”, “Inc.). Nine” for “Inc.). Eleven”
as §2

Tenascin-C = assay: Effect on Tenascin-C in the FaDu subcutaneous model in mice; conditions: Compound (1) 180 μg/kg + CTX 10 mg/kg on Day 1, five days after, compared with control tumors
Experimental: A human squamous cell carcinoma of the head and neck (SCCHN) cell line FaDu, which had been cultured in an RPMI-1640 medium containing 10% FBS, and penicillin-streptomycin (culture medium), was adjusted to a concentration of 5×10^7 cells/mL with culture medium to prepare a cell suspension. The cell suspension was inoculated in a volume of 100 μL into a subcutaneous part of a right flank of nude mice, 6 weeks of ages (CAnN.Cg-Foxnlnu/CrlCrlj, female, Charles River Laboratories Japan, Inc.). Ten days after cell inoculation, the mice were grouped such that averages of the tumor volumes were substantially equal among the groups. The experiment was conducted on groups each consisting of 5 mice. Compound (1) was dissolved in DMSO and a solution was stored in the freezer before use. […] Five days after the single administration, tumor samples were collected and fixed with IHC Zinc Fixative (BD Pharmingen) at 4° C. for 24 hr. Paraffin-embedded tissues were sectioned (3 μm), mounted on positively charged slides, and air-dried. Sections were deparaffinized, conditioned and the antigens were retrieved using microwave with 1 mM EDTA at pH 6.0 for Tenascin-C. For EDA-fibronectin, the antigens retrieval procedure was not necessary. […]

[3] = 60 μg/kg intravenously on Day 1 and Day 8
[4] = 180 μg/kg intravenously on Day 1 and Day 8

`C=C1C[C@@H]2CC[C@@]34C[C@H]5O[C@H]6[C@@H](O3)[C@H]3O[C@H](CC[C@@H]3O[C@H]6C5O4)CC(=O)O[C@@H]3[C@@H](C)[C@@H]4O[C@@H]5C[C@]6(C[C@@H]7O[C@]8(C[C@H](C)[C@@H]9O[C@H](CN)[C@H](O)C[C@@H]9O8)C[C@H](C)[C@@H]7O6)O[C@@H]5C[C@@H]4O[C@H]3C[C@H]3O[C@@H](CC[C@@H]1O2)C[C@@H](C)C3=C` [Compound (1)] was tested, and the antitumor effect [1, 3] was “tumor regression was observed”, the antitumor effect [1, 4] was “tumor regression was observed” and the “eradication of xenograft tumors” value ([1]; 180 μg/kg, on Day 15) was “completely eradicated the xenograft tumors in all mice”. For the same compound, the antitumor effect [2, 3] was “tumor growth delay”, the antitumor effect [2, 4] was “tumor regression” and the “eradication of xenograft tumors” value ([2]; 180 μg/kg, on Day 22) was “completely eradicated the xenograft tumors in all mice”. The “expression level of Tenascin-C” value (Tenascin-C) was “reduced”.

Reference: US11725015B2, “Macrocyclic compound and uses thereof” (President and Fellows of Harvard College, priority 2017, dated 2023)
